{"source": "patent US20160346255A1", "about": "“METHODS, AGENTS AND COMPOSITIONS FOR TREATMENT OF INFLAMMATORY CONDITIONS” (Betanien Hospital, priority 2014, published 2016)", "format_in_all_cases": "in vivo, human", "key": {"[1]": {"test_system": "Patient with Ankylosing Spondylitis", "test": "Ankylosing spondylitis patient treated with degarelix (and earlier TNF inhibitors)", "conditions": "for Glomerular filtration rate (>60): 10 Sep. 2014 56; for Creatinine (60-105 μmol/L): 10 Sep. 2014 112; for Urate (230-480 μmol/L): 10 Sep. 2014 515; for CRP: 10 Sep. 2014 <5; for BASDAI: baseline 8.7", "text": "Example of Treating a Patient with Ankylosing Spondylitis with a GnRH Antagonist\nDiagnosed with ankylosing spondylitis in 1984, HLAB27 positive, with repeated iridocyclitis. Used non-steroidal anti-inflammatory drugs previously. They were offered the TNFα inhibitor Golilimumab in 2010. Their disease activity score was 8.9 in October 2010 (see below for explanation of disease activity score) on initiating Golilimumab; by the June 2012 this score had reduced to 6.6, but by May 2013 the effect had worn off and their score was 7.6. May 2013, they initiated Enbrel treatment, but their disease activity increased from 7.6 to 8.3. Due to their poor response to TNFα therapy, they were offered the GnRH antagonist degarelix in September 2014.\nDisease activity in ankylosing spondylitis is measured by the BASDAI (Bath Ankylosing Spondylitis Disease Activity Index (1)), which has been extensively validated in clinical trials, 2, 3 and is one of the most commonly used outcome measures in clinical trials. This is a composite index that evaluates fatigue, axial and peripheral pain, stiffness and enthesopathy. Their BASDAI was at 8.7 at baseline. In September 2014 they received their first dose of degarelix 240 mg s.c. By 2 weeks, their BASDAI had reduced to 6.8, and by 6 weeks it had reduced to 5.8. This is the lowest BASDAI score they have ever had since we first started using this method of assessment 4 years ago in 2010. Their morning stiffness lasted 4 hours at baseline, by 6 weeks their morning stiffness had reduced to 2 hours. They had their second dose of degarelix 80 mg s.c in October 2014. Lumbar flexion and maximum arm abduction were increased after 6 weeks of treatment.\nResponse to therapy in clinical practice is defined as improvement of 2 units or 50% on a 0-10 scale of the BASDAI, and expert opinion that the treatment should be continued. Their reduction by 6 weeks was 2.9 units, and 7.1 units with an 82% BASDAI score improvement by 9 weeks, and we shall continue treatment. A BASDAI 50% improvement is defined as a major clinical response. […] For comparison, approximately 50-60% of patients achieve a BASDAI 50 by 12 weeks on TNF inhibitors (4). Their ESR has decreased from 46 mm to 23 mm, which is their lowest ESR reading in 19 years. […] By 9 weeks of GnRH antagonist therapy, their kidney function has normalized, and fasting glucose reduced from 7.4 to 6.5 mmol/L. By 3 months, the effect on their ankylosing spondylitis remained, creatinine was at 98 μmol/L, with a glomerular filtration rate of 66 ml/min/1.73 m^2 in December 2014."}, "[2]": {"test_system": "patients 1 and 2 (rheumatoid arthritis)", "test": "Hip bone mineral density in patients taking a GnRH antagonist", "text": "However, our data indicates the opposite."}, "[3]": {"test_system": "Patient with Rheumatoid Arthritis", "test": "Rheumatoid arthritis patient treated with degarelix 40 mg weekly", "conditions": "240 mg loading", "method": "• person with seropositive rheumatoid arthritis with disease duration of 22 years. • Fulfilled ACR 2010 classification criteria for rheumatoid arthritis.\n• Had tried most therapies available (for example: Humira, Remicade, Enbrel, Actemra, several disease modifying anti-rheumatic drugs), previously without effect or intolerable side effects. • Offered experimental GnRH antagonist therapy, degarelix 40 mg every week with 240 mg loading dose at baseline."}, "[4]": {"test": "Peripheral GnRH levels by ELISA in patients on degarelix", "conditions": "3 months", "method": "(§1) We analysed peripheral GnRH levels in patients with various autoimmune diseases using ELISA. […] Due to the nature of ELISA assays, the concentration in pg/mL should not necessarily be regarded as absolute, and may be interpreted as relative. RA Patient A Baseline GnRH 394 pg/mL, after 3 months of degarelix with loading dose 240 mg, and maintenance doses 80 mg every 2 weeks, GnRH 359 pg/mL. […] During that month/6 weeks […] general function had improved, for example MSIS-29 had reduced from 121 to 110. […] During that period their PASI score reduced by more than 20%. Healthy control 1 baseline GnRH 162 pg/mL, healthy control 2 baseline GnRH 120 pg/mL, healthy control 3 baseline GnRH 153 pg/mL."}, "peripheral GnRH": {"test_system": "peripheral GnRH", "test": "Peripheral GnRH levels by ELISA in patients on degarelix", "method": "as §1"}, "[5]": {"conditions": "ankylosing spondylitis patient, after 6 weeks"}, "[6]": {"conditions": "ankylosing spondylitis patient, by 3 months, December 2014"}, "[7]": {"conditions": "ankylosing spondylitis patient, by 6 weeks"}, "[8]": {"conditions": "ankylosing spondylitis patient, by 9 weeks"}}, "note": "Non-standard residues stand in square brackets, D forms with d. Residues, ends and D or L forms follow the SMILES beside them. *: point of attachment. dPhe(4-NHCONH2) = NC(=O)Nc1ccc(C[C@@H](N)C(=O)O)cc1; Dihydroorotyl(S) = O=C1C[C@@H](C(=O)*)NC(=O)N1; dPhe(4-Cl) = N[C@H](Cc1ccc(Cl)cc1)C(=O)O; Phe(4-NH2) = Nc1ccc(C[C@H](N)C(=O)O)cc1; d2Nal = N[C@H](Cc1ccc2ccccc2c1)C(=O)O; Lys(iPr) = CC(C)NCCCC[C@H](N)C(=O)O; d3Pal = N[C@H](Cc1cccnc1)C(=O)O", "data": [{"smiles": "CC(=O)N[C@H](Cc1ccc2ccccc2c1)C(=O)N[C@H](Cc1ccc(Cl)cc1)C(=O)N[C@H](Cc1cccnc1)C(=O)N[C@@H](CO)C(=O)N[C@@H](Cc1ccc(NC(=O)[C@@H]2CC(=O)NC(=O)N2)cc1)C(=O)N[C@H](Cc1ccc(NC(N)=O)cc1)C(=O)N[C@@H](CC(C)C)C(=O)N[C@@H](CCCCNC(C)C)C(=O)N1CCC[C@H]1C(=O)N[C@H](C)C(N)=O", "note": "[degarelix] (Ac-[d2Nal][dPhe(4-Cl)][d3Pal]S[Phe(4-NH2)](Dihydroorotyl(S))[dPhe(4-NHCONH2)]L[Lys(iPr)]P[dA]-NH2)", "values": [{"measurement": "Glucose fasting (4.0-6.0 mmol/L)", "setting": "[1]; 10 Nov. 2014 (9 weeks), 10 Sep. 2014 7.4", "value": 6.5, "unit": "mmol/L"}, {"measurement": "Glomerular filtration rate (>60)", "setting": "[1]; 10 Nov. 2014", "value": 65, "unit": "ml/min/1.73 m^2"}, {"measurement": "Creatinine (60-105 μmol/L)", "setting": "[1]; 10 Nov. 2014", "value": 99, "unit": "µmol/L"}, {"measurement": "Urate (230-480 μmol/L)", "setting": "[1]; 10 Nov. 2014", "value": 426, "unit": "µmol/L"}, {"measurement": "CRP", "setting": "[1]; 10 Nov. 2014", "value": "<5"}, {"measurement": "Glomerular filtration rate (>60)", "setting": "[1]; 24 Sep. 2014", "value": "55↓ ml/min/1.73 m^2"}, {"measurement": "Creatinine (60-105 μmol/L)", "setting": "[1]; 24 Sep. 2014", "value": "114↑ μmol/L"}, {"measurement": "Urate (230-480 μmol/L)", "setting": "[1]; 24 Sep. 2014", "value": "512↑ μmol/L"}, {"measurement": "ESR (<20 mm)", "setting": "[1]; 24 Sep. 2014, 10 Sep. 2014 (start) 46", "value": "31↑ mm"}, {"measurement": "CRP", "setting": "[1]; 24 Sep. 2014", "value": "<5"}, {"measurement": "ESR (<20 mm)", "setting": "[1]; 27 Oct. 2014, 10 Sep. 2014 46", "value": "28↑ mm"}, {"measurement": "Glomerular filtration rate (>60)", "setting": "[1]; 27 Oct. 2014", "value": "56↓ ml/min/1.73 m^2"}, {"measurement": "Creatinine (60-105 μmol/L)", "setting": "[1]; 27 Oct. 2014", "value": "111↑ μmol/L"}, {"measurement": "Urate (230-480 μmol/L)", "setting": "[1]; 27 Oct. 2014", "value": "495↑ μmol/L"}, {"measurement": "CRP", "setting": "[1]; 27 Oct. 2014", "value": "<5"}, {"measurement": "Lumbar flexion", "setting": "[1]; [5]", "value": "increased"}, {"measurement": "Maximum arm abduction", "setting": "[1]; [5]", "value": "increased"}, {"measurement": "ASAS response achieved", "setting": "[1]; ankylosing spondylitis patient, at least 80% improvement", "value": "ASAS 80"}, {"measurement": "BASDAI", "setting": "[1]; ankylosing spondylitis patient, by 2 weeks", "value": 6.8}, {"measurement": "Creatinine", "setting": "[1]; [6]", "value": 98, "unit": "µmol/L"}, {"measurement": "Glomerular filtration rate", "setting": "[1]; [6]", "value": 66, "unit": "ml/min/1.73 m^2"}, {"measurement": "BASDAI reduction", "setting": "[1]; [7]", "value": 2.9, "unit": "units"}, {"measurement": "BASDAI", "setting": "[1]; [7]", "value": 5.8}, {"measurement": "Morning stiffness", "setting": "[1]; ankylosing spondylitis patient, by 6 weeks, baseline 4 hours", "value": 2, "unit": "h"}, {"measurement": "BASDAI reduction", "setting": "[1]; [8]", "value": 7.1, "unit": "units"}, {"measurement": "BASDAI score improvement", "setting": "[1]; [8]", "value": 82, "unit": "%"}, {"measurement": "Kidney function", "setting": "[1]; [8]", "value": "normalized"}, {"measurement": "Bone mineral density in hips", "setting": "[2]; Patient 1, first time in 3.5 years, no osteoporosis therapy (FIG. 9)", "value": "improvement"}, {"measurement": "Bone mineral density in hips", "setting": "[2]; Patient 2, first time in 4.5 years (FIG. 10)", "value": "improvement"}, {"measurement": "CRP", "setting": "[3]; from 87 mg/L", "value": 67, "unit": "mg/L"}, {"measurement": "ESR", "setting": "[3]; from 62 mm", "value": 38, "unit": "mm"}, {"measurement": "Disease activity score (DAS)", "setting": "[3]; at 2 weeks, from 7.3", "value": 6.7}, {"measurement": "PASI score reduction", "setting": "[4]; Psoriasis Patient C", "value": "more than 20%"}, {"measurement": "CRP", "setting": "[4]; RA Patient A, from 142 mg/L", "value": 54, "unit": "mg/L"}, {"measurement": "DAS score", "setting": "[4]; RA Patient A, from 8.6", "value": 4.2}, {"measurement": "Peripheral GnRH (ELISA)", "setting": "peripheral GnRH; Multiple Sclerosis Patient B, after 1 month, baseline 318", "value": 210, "unit": "pg/mL"}, {"measurement": "Peripheral GnRH (ELISA)", "setting": "peripheral GnRH; Psoriasis Patient C, after 3 months, baseline 300", "value": 274, "unit": "pg/mL"}, {"measurement": "Peripheral GnRH (ELISA)", "setting": "peripheral GnRH; RA Patient A, after 3 months, baseline 394", "value": 359, "unit": "pg/mL"}]}]}
